Laboratory results taken from ChEMBL document CHEMBL5380808, “Design, Synthesis, and Biological Activity of Marinacarboline Analogues as STAT3 Pathway Inhibitors for Docetaxel-Resistant Triple-Negative Breast Cancer” (J Med Chem, 2023).
Active and inactive are the calls of the source. The rule behind the calls is not given here.

Tests used:
[1] = test system: MDA-MB-231; assay: Inhibition of cell migration in docetaxel-resistant human MDA-MB-231-DTR cells assessed as downregulation of N-cadherin expression level at 3 to 6 uM incubated for 24 hrs by Western blot analysis; assay type: functional, cell-based; conditions: dose 3-6 µM
[2] = test system: MDA-MB-231; assay: Antiproliferative activity against human MDA-MB-231 cells assessed as reduction in cell viability incubated for 72 hrs by sulforhodamine B assay; assay type: functional, cell-based; conditions: MDA-MB-231, 72 h
[3] = test system: MDA-MB-231; assay: Induction of apoptosis in docetaxel-resistant human MDA-MB-231-DTR cells assessed as upregulation of cleaved-caspase-3 expression level at 2.5 to 10 uM incubated for 48 hrs by Western blot analysis; assay type: functional, cell-based; conditions: dose 2.5-10 µM
[4] = Synergistic antiproliferative activity against docetaxel-resistant human MDA-MB-231-DTR cells assessed as combination index at 8 uM incubated for 72 hrs in presence of 4 uM of docetaxel by Chou-Talalay method; assay type: functional
[5] = target: Signal transducer and activator of transcription 3 (Homo sapiens) (UniProt P40763); assay: Inhibition of STAT3 phosphorylation at Y705 residue in docetaxel-resistant human MDA-MB-231-DTR cells assessed as decrease in phosphorylated STAT3 level at 2.5 to 10 uM incubated for 24 hrs by Western blot analysis; assay type: cell-based; conditions: dose 2.5-10 µM
[6] = test system: MDA-MB-231; assay: Antitumor activity against docetaxel-resistant human MDA-MB-231-DTR cells xenografted in BALB/c mouse assessed as upregulation of E-cadherin level in tumor tissue at 10 mg/kg, ip daily for 12 days by Immunohistochemical analysis; assay type: functional, organism-based; conditions: time 12.0 day
[7] = test system: MDA-MB-231; assay: Induction of cell cycle arrest at G2/M phase in docetaxel-resistant human MDA-MB-231-DTR cells assessed as downregulation of Cdc25C expression level at 2.5 to 10 uM incubated for 36 hrs by Western blot analysis; assay type: functional, cell-based; conditions: dose 2.5-10 µM
[8] = test system: MDA-MB-231; assay: Antitumor activity against docetaxel-resistant human MDA-MB-231-DTR cells xenografted in BALB/c mouse assessed as reduction in tumor volume at 10 mg/kg, ip daily for 12 days in presence of docetaxel; assay type: functional, organism-based; conditions: time 12.0 day
[9] = target: Signal transducer and activator of transcription 3 (Homo sapiens) (UniProt P40763); assay: Inhibition of STAT3 phosphorylation at Y705 residue in human MDA-MB-231 cells assessed as decrease in phosphorylated STAT3 level at 5 uM incubated for 24 hrs by Western blot analysis; assay type: cell-based
[10] = Induction of cell cycle arrest in docetaxel-resistant human MDA-MB-231-DTR cells assessed as accumulation at subG1 phase at 5 uM incubated for 48 hrs by PI staining based flow cytometry analysis (reference value: 0.41%); assay type: functional
[11] = test system: MDA-MB-231; assay: Induction of cell cycle arrest at G2/M phase in docetaxel-resistant human MDA-MB-231-DTR cells assessed as upregulation of Chk1 phosphorylation at S345 at 2.5 to 10 uM incubated for 36 hrs by Western blot analysis; assay type: functional, cell-based; conditions: dose 2.5-10 µM
[12] = Synergistic antiproliferative activity against docetaxel-resistant human MDA-MB-231-DTR cells assessed as combination index at 2 uM incubated for 72 hrs in presence of 4 uM of docetaxel by Chou-Talalay method; assay type: functional
[13] = Induction of cell cycle arrest in docetaxel-resistant human MDA-MB-231-DTR cells assessed as accumulation at G2/M phase at 5 uM incubated for 36 hrs by PI staining based flow cytometry analysis (reference value: 13.16%); assay type: functional
[14] = Induction of cell cycle arrest in docetaxel-resistant human MDA-MB-231-DTR cells assessed as accumulation at S phase at 5 uM incubated for 24 hrs by PI staining based flow cytometry analysis (reference value: 10.56%); assay type: functional
[15] = Induction of cell cycle arrest in docetaxel-resistant human MDA-MB-231-DTR cells assessed as accumulation at G2/M phase at 5 uM incubated for 12 hrs by PI staining based flow cytometry analysis (reference value: 13.54%); assay type: functional
[16] = Induction of cell cycle arrest in docetaxel-resistant human MDA-MB-231-DTR cells assessed as accumulation at G2/M phase at 2.5 uM incubated for 36 hrs by PI staining based flow cytometry analysis (reference value: 13.16%); assay type: functional
[17] = test system: MDA-MB-231; assay: Induction of apoptosis in docetaxel-resistant human MDA-MB-231-DTR cells assessed as upregulation of cleaved-PARP expression level at 2.5 to 10 uM incubated for 48 hrs by Western blot analysis; assay type: functional, cell-based; conditions: dose 2.5-10 µM
[18] = Induction of cell cycle arrest in docetaxel-resistant human MDA-MB-231-DTR cells assessed as accumulation at subG1 phase at 5 uM incubated for 36 hrs by PI staining based flow cytometry analysis (reference value: 0.41%); assay type: functional
[19] = Induction of cell cycle arrest in docetaxel-resistant human MDA-MB-231-DTR cells assessed as accumulation at S phase at 10 uM incubated for 36 hrs by PI staining based flow cytometry analysis (reference value: 11.57%); assay type: functional
[20] = Induction of cell cycle arrest in docetaxel-resistant human MDA-MB-231-DTR cells assessed as accumulation at S phase at 2.5 uM incubated for 36 hrs by PI staining based flow cytometry analysis (reference value: 11.57%); assay type: functional
[21] = Cytotoxicity against human MRC5 cells assessed as reduction in cell viability incubated for 72 hrs by sulforhodamine B assay; assay type: toxicity, cell-based
[22] = Induction of cell cycle arrest in docetaxel-resistant human MDA-MB-231-DTR cells assessed as accumulation at S phase at 5 uM incubated for 36 hrs by PI staining based flow cytometry analysis (reference value: 10.56%); assay type: functional
[23] = Induction of cell cycle arrest in docetaxel-resistant human MDA-MB-231-DTR cells assessed as accumulation at G2/M phase at 5 uM incubated for 36 hrs by PI staining based flow cytometry analysis (reference value: 13.54%); assay type: functional
[24] = Synergistic antiproliferative activity against docetaxel-resistant human MDA-MB-231-DTR cells assessed as combination index at 4 uM incubated for 72 hrs in presence of 2 uM of docetaxel by Chou-Talalay method; assay type: functional
[25] = Induction of cell cycle arrest in docetaxel-resistant human MDA-MB-231-DTR cells assessed as accumulation at subG1 phase at 5 uM incubated for 12 hrs by PI staining based flow cytometry analysis (reference value: 0.41%); assay type: functional
[26] = Induction of cell cycle arrest in docetaxel-resistant human MDA-MB-231-DTR cells assessed as accumulation at subG1 phase at 10 uM incubated for 36 hrs by PI staining based flow cytometry analysis (reference value: 0.52%); assay type: functional
[27] = Induction of apoptosis in docetaxel-resistant human MDA-MB-231-DTR cells assessed as increase in total cell death at 10 uM incubated for 48 hrs by Annexin V-FITC and PI staining based flow cytometry; assay type: functional
[28] = test system: MDA-MB-231; assay: Induction of cell cycle arrest at G2/M phase in docetaxel-resistant human MDA-MB-231-DTR cells assessed as downregulation of c-Myc expression level at 2.5 to 10 uM incubated for 36 hrs by Western blot analysis; assay type: functional, cell-based; conditions: dose 2.5-10 µM

Chain of Signal transducer and activator of transcription 3 (Homo sapiens) (P40763 whole entry): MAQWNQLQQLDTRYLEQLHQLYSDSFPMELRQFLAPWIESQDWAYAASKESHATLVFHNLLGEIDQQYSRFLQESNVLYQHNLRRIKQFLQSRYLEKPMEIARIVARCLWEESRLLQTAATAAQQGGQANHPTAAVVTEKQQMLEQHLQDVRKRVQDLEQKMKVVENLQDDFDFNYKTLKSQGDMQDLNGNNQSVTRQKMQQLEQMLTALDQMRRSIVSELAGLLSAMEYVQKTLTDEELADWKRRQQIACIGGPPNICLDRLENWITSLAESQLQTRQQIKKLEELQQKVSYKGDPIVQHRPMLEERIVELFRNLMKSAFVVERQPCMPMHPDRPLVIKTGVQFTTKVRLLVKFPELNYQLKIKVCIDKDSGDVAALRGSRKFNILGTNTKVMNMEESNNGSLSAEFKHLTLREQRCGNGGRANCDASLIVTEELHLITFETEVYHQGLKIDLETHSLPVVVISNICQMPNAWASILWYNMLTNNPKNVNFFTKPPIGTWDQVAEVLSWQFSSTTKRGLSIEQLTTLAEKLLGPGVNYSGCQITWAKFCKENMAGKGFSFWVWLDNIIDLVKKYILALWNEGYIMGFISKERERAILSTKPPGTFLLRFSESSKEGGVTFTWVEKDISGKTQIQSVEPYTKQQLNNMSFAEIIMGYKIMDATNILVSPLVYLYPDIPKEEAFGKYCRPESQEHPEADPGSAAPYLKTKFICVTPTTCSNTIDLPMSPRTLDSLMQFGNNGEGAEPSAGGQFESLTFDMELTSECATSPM

Compound: O=C(NCCc1c[nH]c2ccccc12)c1cc2c([nH]c3ccccc32)c(C(=O)c2ccc(Br)cc2)n1
- inhibition [1]: Active
- IC50 [2]: 3.11 µM
- Activity [3]: Active
- CI [4]: 0.32
- inhibition [5]: Active
- Activity [6]: Active
- Activity [7]: Active
- Activity [8]: Active
- inhibition [9]: Active
- Activity [10]: 19.53%
- Activity [11]: Active
- CI [12]: 0.32
- Activity [13]: 24.58%
- Activity [14]: 18.28%
- Activity [15]: 17.91%
- Activity [16]: 25.18%
- Activity [17]: Active
- Activity [18]: 4.35%
- Activity [19]: 18.42%
- Activity [20]: 12.13%
- IC50 at 72 h [21]: 33.2 µM
- Activity [22]: 14.21%
- Activity [23]: 26.59%
- CI [24]: 0.53
- Activity [25]: 0.82%
- Activity [26]: 2.51%
- Activity [27]: 61.85%
- Activity [28]: Active
